Our source for the MIC values is patent US4272437A, “Antibacterial agents, and 4-thio azetidinone intermediates” (priority 1979, dated 1981).

Converted amounts (≈) assume the structure as drawn. Structures can show the parent of a compound that is named as a salt. Where two headings read alike, the source gives them in different places.

Assay [1] has as its system Staph. aureus A-9537. The assay can be described thus: MIC, tube dilution, Staphylococcus aureus A9537. The note with it: Staphylococcus aureus, A9537, Staph. aureus A9537; overnight 37° C., Nutrient Broth; read-out: Minimum Inhibitory Concentration (M.I.C.). The assay is classed as cell-based. From the text:
(§1) Representative compounds of the present invention were subjected to in vitro antibiotic screening against a variety of microorganisms.

Assay [2] has as its system Ent. cloacae A-9656. The assay is described as follows: MIC, tube dilution, Enterobacter cloacae A9656. The note with it: Enterobacter cloacae A9656; overnight 37° C.; read-out: Minimum Inhibitory Concentration (M.I.C.). Type of assay: cell-based.
Description: as §1

The subject of assay [3] is Str. pyogenes A-9604. The assay is described as follows: MIC, tube dilution, Streptococcus pyogenes A9604. The assay is classed as cell-based. The note with it: Streptococcus pyogenes, A9604, Str. pyogenes A9604; overnight 37° C., Nutrient Broth; read-out: Minimum Inhibitory Concentration (M.I.C.).
Description: as §1

Assay [4] deals with Str. faecalis A-20688. The assay can be described thus: MIC, tube dilution, Streptococcus faecalis A20688. The assay is classed as cell-based. The note with it: Enterococcus faecalis, A20688, Str. faecalis A20688; overnight 37° C.; read-out: Minimum Inhibitory Concentration (M.I.C.).
Description: as §1

In assay [5] the test system is Ps. aeruginosa A-9843A. The assay can be described thus: MIC, tube dilution, Pseudomonas aeruginosa A9843A. Type of assay: cell-based. The note with it: Pseudomonas aeruginosa, A9843A, read-out: Minimum Inhibitory Concentration (M.I.C.), Pseudomonas aeruginosa A9843A; overnight 37° C.
Description: as §1

For assay [6], the system named is E. coli A-15119. The assay can be described thus: MIC, tube dilution, Escherichia coli A15119. Type of assay: cell-based. The note with it: Escherichia coli, A15119, E. coli A15119; overnight 37° C.; read-out: Minimum Inhibitory Concentration (M.I.C.).
Description: as §1

Assay [7] has as its system Pr. mirabilis A-9900. The assay is described as follows: MIC, tube dilution, Proteus mirabilis A9900. The assay is classed as cell-based. The note with it: Proteus mirabilis, A9900, Proteus mirabilis A9900; overnight 37° C.; read-out: Minimum Inhibitory Concentration (M.I.C.).
Description: as §1

The subject of assay [8] is Klebsiella species A20468. The assay is described as follows: MIC, tube dilution, Klebsiella species A20468. Type of assay: cell-based. The note with it: Klebsiella species (K. pneumoniae) A20468; overnight 37° C.; read-out: Minimum Inhibitory Concentration (M.I.C.).
Description: as §1

The subject of assay [9] is Ser. marcescens A-20019. The assay is described as follows: MIC, tube dilution, Serratia marcescens A20019. The note with it: Serratia marcescens, A20019, Serratia marcescens A20019; overnight 37° C.; read-out: Minimum Inhibitory Concentration (M.I.C.). Type of assay: cell-based.
Description: as §1

Assay [10] concerns Staph. aureus A-9537 and 50% serum. The assay can be described thus: MIC, tube dilution, Staph. aureus A9537 + 50% serum. Type of assay: cell-based, Staphylococcus aureus. The note with it: Staphylococcus aureus, overnight 37° C., read-out: Minimum Inhibitory Concentration (M.I.C.).
Description: as §1

Assay [11] concerns K. pneumoniae A-15130. The assay is described as follows: MIC, tube dilution, Klebsiella pneumoniae A15130. The assay is classed as cell-based. The note with it: Klebsiella pneumoniae, A15130, K. pneumoniae A15130; overnight 37° C.; read-out: Minimum Inhibitory Concentration (M.I.C.).
Description: as §1

The subject of assay [12] is Proteus rettgeri A21203. The assay is described as follows: MIC, tube dilution, Proteus rettgeri A21203. The assay is classed as cell-based. The note with it: Providencia rettgeri; Proteus rettgeri A21203; overnight 37° C.; read-out: Minimum Inhibitory Concentration (M.I.C.).
Description: as §1

The subject of assay [13] is Ps. aeruginosa A-21213. The assay is described as follows: MIC, tube dilution, Pseudomonas aeruginosa A21213. The assay is classed as cell-based. The note with it: Pseudomonas aeruginosa A21213; overnight 37° C.; read-out: Minimum Inhibitory Concentration (M.I.C.).
Description: as §1

Assay [14] deals with Str. pneumoniae A-9585. The assay can be described thus: MIC, tube dilution, Streptococcus pneumoniae A9585. The assay is classed as cell-based. The note with it: Streptococcus pneumoniae, A9585, Str. pneumoniae A9585; overnight 37° C., Nutrient Broth; read-out: Minimum Inhibitory Concentration (M.I.C.).
Description: as §1

For assay [15], the system named is Ent. cloacae A-9659. The assay is described as follows: MIC, tube dilution, Enterobacter cloacae A9659. The assay is classed as cell-based. The note with it: Enterobacter cloacae, A9659, Enterobacter cloacae A9659; overnight 37° C.; read-out: Minimum Inhibitory Concentration (M.I.C.).
Description: as §1

The subject of assay [16] is Pr. morganii A-15153. The assay can be described thus: MIC, tube dilution, Proteus morganii A15153. Type of assay: cell-based. The note with it: Morganella morganii, A15153, Proteus morganii A15153; overnight 37° C.; read-out: Minimum Inhibitory Concentration (M.I.C.).
Description: as §1

For assay [17], the system named is Staph. aureus (Meth-Res) A-15097. The assay is described as follows: MIC, tube dilution, Staphylococcus aureus A15097 (Meth-Res). Type of assay: cell-based. The note with it: Staphylococcus aureus, read-out: Minimum Inhibitory Concentration (M.I.C.), Staph. aureus A15097 (Meth-Res); overnight 37° C.
Description: as §1

The test system of assay [18] is Proteus vulgaris A21559. The assay can be described thus: MIC, tube dilution, Proteus vulgaris A21559. The assay is classed as cell-based. The note with it: Proteus vulgaris, A21559, read-out: Minimum Inhibitory Concentration (M.I.C.).
Description: as §1

Assay [19] deals with Staph. aureus (Pen-Res) A-9606. The assay can be described thus: MIC, tube dilution, Staphylococcus aureus A9606 (Pen-Res). Type of assay: cell-based. The note with it: Staphylococcus aureus, overnight 37° C.
Description: as §1

For assay [20], the system named is E. coli A-20341-1. The assay is described as follows: MIC, tube dilution, Escherichia coli A20341-1. The assay is classed as cell-based. The note with it: Escherichia coli, A203411; E. coli A20341-1; overnight 37° C.; read-out: Minimum Inhibitory Concentration (M.I.C.).
Description: as §1

[21] abbreviates: read-out: Minimum Inhibitory Concentration (M.I.C.), Staph. aureus A9606 (Pen-Res).

Consider `CC[C@H](O)[C@H]1C(=O)N2C(C(=O)O)=C(C)S[C@H]12` (relative stereo) [Example 93, (1'S,5R,6S, and 1'R,5S,6R) 6-(1'--Hydroxy-1'-propyl)-2-methylpenem-3-carboxylic acid, sodium salt (isomer C)], for which the MIC in assay [1], in assay [2], in assay [3], in assay [4], in [5] and in assay [6] was greater than 125 µg/mL throughout. For the same compound, the MIC was greater than 125 µg/mL in [7]; greater than 125 µg/mL in assay [8]; greater than 125 µg/mL in assay [9]; greater than 63 µg/mL in assay [10]; greater than 125 µg/mL in assay [11]; greater than 125 µg/mL in [12]. The MIC in [13], in [14], in assay [15], in assay [16], in assay [17] and in [18] was greater than 125 µg/mL each time. Moreover, the MIC in assay [19] (setting [21]) and in [20] was greater than 125 µg/mL each time.

Turning to `CC[C@@H](O)[C@H]1C(=O)N2C(C(=O)O)=C(C)S[C@H]12` (relative stereo) [Example 94, (1'R,5R,6S and 1'S,5S,6R) 6-(1'-Hydroxy-1'-propyl)-2-methylpenem-3carboxylic acid, sodium and potassium salts (isomer B)], the MIC in assay [1] was 32 µg/mL; in assay [2], greater than 125 µg/mL; in assay [3], 16 µg/mL; in assay [4], greater than 125 µg/mL; in assay [5] it was greater than 125 µg/mL; in assay [6], greater than 125 µg/mL. Also, the MIC was greater than 125 µg/mL in [7]; greater than 125 µg/mL in assay [8]; greater than 125 µg/mL in assay [9]; greater than 63 µg/mL in assay [10]; greater than 125 µg/mL in [11]; greater than 125 µg/mL in [12]. Further, the MIC was greater than 125 µg/mL in assay [13]; 1 µg/mL in [14]; greater than 125 µg/mL in [15]; greater than 125 µg/mL in [16]; greater than 125 µg/mL in assay [17]; greater than 125 µg/mL in assay [18]. Moreover, the MIC was 32 µg/mL in assay [19] (Staph. aureus A9606 (Pen-Res), read-out: Minimum Inhibitory Concentration (M.I.C.)) and greater than 125 µg/mL in assay [20].

For the compound `CC1=C(C(=O)O)N2C(=O)[C@H]([C@H](O)Cc3ccccc3)[C@H]2S1` (relative stereo) [Example 95, (1'R,5R,6S and 1'S,5S,6R) 6-(1'-Hydroxy-2'-phenylethyl)-2-methylpenem-3-carboxylic acid (isomer B)], the MIC in [1] is 125 µg/mL (≈ 409 µM); in [2], greater than 125 µg/mL; in [3], 32 µg/mL (≈ 105 µM); in assay [4] it was greater than 125 µg/mL; in assay [5] it was greater than 125 µg/mL; in [6] it was greater than 125 µg/mL. Moreover, the MIC is greater than 125 µg/mL in assay [7]; greater than 125 µg/mL in assay [8]; greater than 125 µg/mL in assay [9]; greater than 63 µg/mL in assay [10]; greater than 125 µg/mL in assay [11]; greater than 125 µg/mL in assay [12]. In addition, the MIC in assay [13] was greater than 125 µg/mL; in assay [14], 32 µg/mL (≈ 105 µM); in [15], greater than 125 µg/mL; in [16] it was greater than 125 µg/mL; in assay [17], greater than 125 µg/mL; in [18], greater than 125 µg/mL. Further, the MIC in assay [19] (setting [21]) and in [20] was greater than 125 µg/mL in each case.
